The values below come from ChEMBL document CHEMBL5696442, “Discovery of type II inhibitors of TGFβ-activated kinase 1 (TAK1) and mitogen-activated protein kinase kinase kinase kinase 2 (MAP4K2)” (J Med Chem, 2015).

Activity calls are given as the source filed them. The rule behind the calls is not given here.

For assay [1], the target named is Cyclin-dependent kinase 6 (Homo sapiens) (UniProt Q00534). In words: Inhibition of CDK6 Lys2 labeling site in human Huh-7 cell lysate at 1 uM by KiNativ Profiling analysis relative to control. Format: subcellular.
The target of assay [2] is Serine/threonine-protein kinase Nek6 (Homo sapiens) (UniProt Q9HC98). As to the kind of experiment: Inhibition of NEK6 Lys2 labeling site harbouring VMHRDIKPANVFITATGVVK in human Huh-7 cell lysate at 1 uM by KiNativ Profiling analysis relative to control. The class given is subcellular.
The target in assay [3] is Serine/threonine-protein kinase 38 (Homo sapiens) (UniProt Q15208). In words: Inhibition of NDR1 Lys1 labeling site in human A-375 cells at 0.5 uM by KiNativ Profiling analysis relative to control. The class given is cell-based.
The target of assay [4] is Serine/threonine-protein kinase 4 (Homo sapiens) (UniProt Q13043). As to the kind of experiment: Inhibition of MST1 Lys1 labeling site harbouring ETGQIVAIKQVPVESDLQEIIK in human A-375 cells at 0.5 uM by KiNativ Profiling analysis relative to control.
Assay [5] addresses Fibroblast growth factor receptor 1 (Homo sapiens) (UniProt P11362). As to the kind of experiment: Inhibition of FGFR1 (unknown origin) at 1 uM by Ambit Kinomescan binding assay relative to control; values are per cent of control.
Assay [6] has as its target Serine/threonine-protein kinase 4 (Homo sapiens) (UniProt Q13043). In words: Inhibition of MST1 Lys2 labeling site harbouring DIKAGNILLNTEGHAK in human A-375 cells at 0.5 uM by KiNativ Profiling analysis relative to control.
The target in assay [7] is Calcium/calmodulin-dependent protein kinase type II subunit delta (Homo sapiens) (UniProt Q13557). As to the kind of experiment: Inhibition of CAMK2D (unknown origin) at 1 uM by Ambit Kinomescan binding assay relative to control; values are per cent of control.
Assay [8] deals with Cyclin-dependent kinase 17 (Homo sapiens) (UniProt Q00537). In words: Inhibition of PCTAIRE2 Lys1 labeling site harbouring SKLTENLVALKEIRLEHEEGAPCTAIR in human A-375 cells at 0.05 uM by KiNativ Profiling analysis relative to control. Format: cell-based.
The target of assay [9] is Glycogen synthase kinase-3 beta (Homo sapiens) (UniProt P49841). In words: Inhibition of GSK3B Lys2 labeling site in human A-375 cells at 5 uM by KiNativ Profiling analysis relative to control. Format: cell-based.
In assay [10] the target is T1, Serine/threonine-protein kinase STK11 (Homo sapiens) (UniProt Q15831).
T1 sequence (whole entry): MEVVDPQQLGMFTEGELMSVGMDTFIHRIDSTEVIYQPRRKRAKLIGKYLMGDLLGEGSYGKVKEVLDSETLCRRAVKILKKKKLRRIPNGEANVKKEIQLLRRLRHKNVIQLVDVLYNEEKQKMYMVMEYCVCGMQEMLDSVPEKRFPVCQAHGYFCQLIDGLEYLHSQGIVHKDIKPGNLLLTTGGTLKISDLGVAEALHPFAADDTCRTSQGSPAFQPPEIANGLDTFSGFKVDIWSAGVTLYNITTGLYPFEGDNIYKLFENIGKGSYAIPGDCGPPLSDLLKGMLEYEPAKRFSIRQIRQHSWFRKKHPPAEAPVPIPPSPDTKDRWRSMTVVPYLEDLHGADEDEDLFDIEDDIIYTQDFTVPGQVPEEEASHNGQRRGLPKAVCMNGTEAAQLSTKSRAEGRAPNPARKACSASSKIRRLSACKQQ
As to the kind of experiment: Inhibition of LKB1 (unknown origin) at 10 uM by Ambit Kinomescan binding assay.

Assay [11] is described as follows: Inhibition of MLK1/4 K2 labeling site in human Huh-7 cells at 10 uM by KiNativ Profiling analysis relative to control. To be noted: condition cancer.
Assay [12] has as its target TGF-beta receptor type-1 (Homo sapiens) (UniProt P36897). In words: Inhibition of TGFBR1 (unknown origin) at 10 uM by Ambit Kinomescan binding assay.
Assay [13] addresses T2, Mitogen-activated protein kinase kinase kinase 2 (Homo sapiens) (UniProt Q9Y2U5).
T2 sequence (whole entry): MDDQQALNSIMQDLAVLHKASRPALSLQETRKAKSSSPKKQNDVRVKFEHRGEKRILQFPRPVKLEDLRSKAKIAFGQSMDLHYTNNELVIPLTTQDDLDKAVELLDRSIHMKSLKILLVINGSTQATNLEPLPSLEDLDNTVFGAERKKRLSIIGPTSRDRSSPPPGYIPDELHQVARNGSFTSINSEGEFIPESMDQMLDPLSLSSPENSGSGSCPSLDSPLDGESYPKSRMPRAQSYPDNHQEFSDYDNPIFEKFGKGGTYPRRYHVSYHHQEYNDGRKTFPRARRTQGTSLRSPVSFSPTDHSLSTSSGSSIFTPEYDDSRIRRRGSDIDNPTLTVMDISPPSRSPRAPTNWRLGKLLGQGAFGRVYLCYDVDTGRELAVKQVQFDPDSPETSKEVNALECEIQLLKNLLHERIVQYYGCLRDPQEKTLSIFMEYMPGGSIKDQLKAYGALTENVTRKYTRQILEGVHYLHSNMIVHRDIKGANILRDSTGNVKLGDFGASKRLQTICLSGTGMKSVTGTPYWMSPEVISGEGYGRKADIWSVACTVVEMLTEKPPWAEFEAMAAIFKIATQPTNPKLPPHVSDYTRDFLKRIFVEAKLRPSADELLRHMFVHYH
As to the kind of experiment: Inhibition of MAP3K2 K1 labeling site in human Huh-7 cells at 10 uM by KiNativ Profiling analysis relative to control. The class given is cell-based.

The target of assay [14] is Serine/threonine-protein kinase 10 (Homo sapiens) (UniProt O94804). As to the kind of experiment: Inhibition of LOK Lys1 labeling site harbouring NKETGALAAAKVIETK in human A-375 cells at 5 uM by KiNativ Profiling analysis relative to control. The class given is cell-based.
For assay [15], the target named is Cyclin-dependent kinase 14 (Homo sapiens) (UniProt O94921). In words: Inhibition of PFTK1 (unknown origin) at 10 uM by Ambit Kinomescan binding assay relative to control.
The target in assay [16] is Receptor tyrosine-protein kinase erbB-2 (Homo sapiens) (UniProt P04626). In words: Inhibition of ERBB2 (unknown origin) at 10 uM by Ambit Kinomescan binding assay.
Assay [17] addresses Serine/threonine-protein kinase SIK1 (Homo sapiens) (UniProt P57059). In words: Inhibition of SIK (unknown origin) at 10 uM by Ambit Kinomescan binding assay relative to control; values are per cent of control.
Assay [18] concerns the target Serine/threonine-protein kinase 38-like (Homo sapiens) (UniProt Q9Y2H1). In words: Inhibition of NDR2 Lys1 labeling site harbouring KDTGHIYAMKILR in human A-375 cells at 0.5 uM by KiNativ Profiling analysis relative to control. The class given is cell-based.
Assay [19] has as its target MAST1/MAST2 (Homo sapiens) (UniProt Q9Y2H9+Q6P0Q8). In words: Inhibition of MAST1/2 K2 labeling site in human Huh-7 cells at 1 uM by KiNativ Profiling analysis relative to control. The class given is cell-based.

Chain of Serine/threonine-protein kinase 4 (Homo sapiens) (Q13043 whole entry, looked up): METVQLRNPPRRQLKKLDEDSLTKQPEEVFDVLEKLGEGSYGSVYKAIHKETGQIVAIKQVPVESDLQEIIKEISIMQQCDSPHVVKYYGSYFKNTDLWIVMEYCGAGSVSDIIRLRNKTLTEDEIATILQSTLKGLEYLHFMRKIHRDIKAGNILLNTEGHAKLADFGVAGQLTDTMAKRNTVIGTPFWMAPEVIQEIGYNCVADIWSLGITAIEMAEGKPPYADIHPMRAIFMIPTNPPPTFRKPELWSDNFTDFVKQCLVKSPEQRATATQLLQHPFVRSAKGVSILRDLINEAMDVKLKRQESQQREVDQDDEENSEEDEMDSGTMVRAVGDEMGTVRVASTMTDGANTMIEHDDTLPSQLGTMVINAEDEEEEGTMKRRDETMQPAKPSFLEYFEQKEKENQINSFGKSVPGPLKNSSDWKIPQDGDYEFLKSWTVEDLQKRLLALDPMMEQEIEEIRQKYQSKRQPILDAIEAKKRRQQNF
Chain of Serine/threonine-protein kinase 38-like (Homo sapiens) (Q9Y2H1 2-464 limits assumed): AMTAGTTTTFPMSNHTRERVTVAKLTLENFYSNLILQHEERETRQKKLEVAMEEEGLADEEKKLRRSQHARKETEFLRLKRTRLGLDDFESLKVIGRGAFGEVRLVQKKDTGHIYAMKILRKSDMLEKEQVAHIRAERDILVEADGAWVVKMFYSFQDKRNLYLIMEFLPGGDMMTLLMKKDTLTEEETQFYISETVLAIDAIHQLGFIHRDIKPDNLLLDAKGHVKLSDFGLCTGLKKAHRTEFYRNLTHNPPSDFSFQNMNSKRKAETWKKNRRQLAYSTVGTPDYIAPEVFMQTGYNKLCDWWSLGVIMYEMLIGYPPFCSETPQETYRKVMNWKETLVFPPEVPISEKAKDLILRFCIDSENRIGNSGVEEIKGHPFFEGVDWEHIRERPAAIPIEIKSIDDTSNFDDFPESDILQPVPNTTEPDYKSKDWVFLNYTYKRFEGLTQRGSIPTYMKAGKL
Chain of Calcium/calmodulin-dependent protein kinase type II subunit delta (Homo sapiens) (Q13557 whole entry): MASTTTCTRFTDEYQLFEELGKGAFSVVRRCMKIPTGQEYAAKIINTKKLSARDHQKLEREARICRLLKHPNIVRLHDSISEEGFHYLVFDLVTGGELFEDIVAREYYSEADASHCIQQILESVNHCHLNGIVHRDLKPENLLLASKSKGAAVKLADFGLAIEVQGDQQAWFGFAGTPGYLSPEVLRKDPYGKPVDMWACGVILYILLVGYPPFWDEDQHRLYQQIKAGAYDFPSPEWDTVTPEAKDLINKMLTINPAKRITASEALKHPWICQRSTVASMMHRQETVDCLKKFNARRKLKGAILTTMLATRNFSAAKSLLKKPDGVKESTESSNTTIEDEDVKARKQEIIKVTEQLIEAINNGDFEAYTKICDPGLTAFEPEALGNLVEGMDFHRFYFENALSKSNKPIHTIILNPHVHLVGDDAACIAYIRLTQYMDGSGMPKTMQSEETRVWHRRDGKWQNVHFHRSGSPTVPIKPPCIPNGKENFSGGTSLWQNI
Chain of Cyclin-dependent kinase 14 (Homo sapiens) (O94921 whole entry): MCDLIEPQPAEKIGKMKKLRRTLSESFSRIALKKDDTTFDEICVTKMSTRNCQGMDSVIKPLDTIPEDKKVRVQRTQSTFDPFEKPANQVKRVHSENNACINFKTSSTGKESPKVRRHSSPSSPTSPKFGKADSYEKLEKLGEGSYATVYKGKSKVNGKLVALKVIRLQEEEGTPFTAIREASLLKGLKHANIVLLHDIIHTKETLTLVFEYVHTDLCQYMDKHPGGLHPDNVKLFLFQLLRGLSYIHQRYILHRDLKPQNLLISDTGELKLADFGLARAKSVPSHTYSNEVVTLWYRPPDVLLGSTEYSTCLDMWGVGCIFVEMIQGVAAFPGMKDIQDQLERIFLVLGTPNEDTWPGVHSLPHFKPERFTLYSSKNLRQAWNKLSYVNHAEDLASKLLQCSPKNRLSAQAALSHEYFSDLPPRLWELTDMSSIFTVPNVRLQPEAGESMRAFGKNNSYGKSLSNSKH
Chain of Glycogen synthase kinase-3 beta (Homo sapiens) (P49841 whole entry, looked up): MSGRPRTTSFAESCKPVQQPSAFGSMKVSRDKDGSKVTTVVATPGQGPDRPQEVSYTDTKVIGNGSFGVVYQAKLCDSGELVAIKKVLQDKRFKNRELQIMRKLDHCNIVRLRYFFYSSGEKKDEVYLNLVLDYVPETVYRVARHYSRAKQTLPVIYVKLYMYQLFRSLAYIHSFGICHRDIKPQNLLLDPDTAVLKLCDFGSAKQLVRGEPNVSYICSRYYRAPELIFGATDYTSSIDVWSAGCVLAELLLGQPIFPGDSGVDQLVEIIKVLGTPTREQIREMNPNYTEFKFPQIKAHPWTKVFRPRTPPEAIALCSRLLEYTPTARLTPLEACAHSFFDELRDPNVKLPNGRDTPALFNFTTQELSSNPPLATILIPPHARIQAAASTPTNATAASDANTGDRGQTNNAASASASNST
Chain of Serine/threonine-protein kinase SIK1 (Homo sapiens) (P57059 whole entry): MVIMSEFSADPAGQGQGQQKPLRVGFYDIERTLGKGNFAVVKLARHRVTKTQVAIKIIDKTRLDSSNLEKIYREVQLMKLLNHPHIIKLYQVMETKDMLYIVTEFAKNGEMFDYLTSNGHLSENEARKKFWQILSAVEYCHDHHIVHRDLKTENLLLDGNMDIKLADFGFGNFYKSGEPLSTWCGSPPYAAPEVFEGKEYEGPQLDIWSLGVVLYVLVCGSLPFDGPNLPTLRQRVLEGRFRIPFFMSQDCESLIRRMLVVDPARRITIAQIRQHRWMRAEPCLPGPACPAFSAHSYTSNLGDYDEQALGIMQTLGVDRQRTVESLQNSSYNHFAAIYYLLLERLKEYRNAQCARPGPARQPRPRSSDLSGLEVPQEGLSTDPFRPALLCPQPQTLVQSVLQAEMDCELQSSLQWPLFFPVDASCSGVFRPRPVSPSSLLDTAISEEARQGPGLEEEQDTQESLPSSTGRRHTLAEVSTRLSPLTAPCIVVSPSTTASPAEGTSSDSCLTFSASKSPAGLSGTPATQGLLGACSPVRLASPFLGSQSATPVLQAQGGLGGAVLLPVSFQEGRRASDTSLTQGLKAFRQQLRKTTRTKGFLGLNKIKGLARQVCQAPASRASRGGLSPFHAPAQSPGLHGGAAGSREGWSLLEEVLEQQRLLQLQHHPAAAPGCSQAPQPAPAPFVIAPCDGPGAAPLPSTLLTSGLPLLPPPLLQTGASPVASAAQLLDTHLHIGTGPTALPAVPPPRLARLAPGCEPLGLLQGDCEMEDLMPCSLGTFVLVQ
Chain of Serine/threonine-protein kinase 38 (Homo sapiens) (Q15208 2-465 limits assumed): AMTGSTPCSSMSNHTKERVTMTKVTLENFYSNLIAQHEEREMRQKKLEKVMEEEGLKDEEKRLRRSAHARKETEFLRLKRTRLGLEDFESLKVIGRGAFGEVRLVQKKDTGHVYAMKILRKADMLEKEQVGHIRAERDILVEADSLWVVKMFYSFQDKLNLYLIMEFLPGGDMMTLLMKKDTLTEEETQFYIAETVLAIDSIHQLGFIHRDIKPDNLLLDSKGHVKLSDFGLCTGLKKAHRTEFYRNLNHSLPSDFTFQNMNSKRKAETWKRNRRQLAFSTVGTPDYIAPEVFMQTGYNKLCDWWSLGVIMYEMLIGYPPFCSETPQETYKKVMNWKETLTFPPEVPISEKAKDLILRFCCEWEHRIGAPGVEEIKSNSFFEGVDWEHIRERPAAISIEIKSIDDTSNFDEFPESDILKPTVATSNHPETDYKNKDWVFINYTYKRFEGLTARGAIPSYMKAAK
Chain of TGF-beta receptor type-1 (Homo sapiens) (P36897 whole entry): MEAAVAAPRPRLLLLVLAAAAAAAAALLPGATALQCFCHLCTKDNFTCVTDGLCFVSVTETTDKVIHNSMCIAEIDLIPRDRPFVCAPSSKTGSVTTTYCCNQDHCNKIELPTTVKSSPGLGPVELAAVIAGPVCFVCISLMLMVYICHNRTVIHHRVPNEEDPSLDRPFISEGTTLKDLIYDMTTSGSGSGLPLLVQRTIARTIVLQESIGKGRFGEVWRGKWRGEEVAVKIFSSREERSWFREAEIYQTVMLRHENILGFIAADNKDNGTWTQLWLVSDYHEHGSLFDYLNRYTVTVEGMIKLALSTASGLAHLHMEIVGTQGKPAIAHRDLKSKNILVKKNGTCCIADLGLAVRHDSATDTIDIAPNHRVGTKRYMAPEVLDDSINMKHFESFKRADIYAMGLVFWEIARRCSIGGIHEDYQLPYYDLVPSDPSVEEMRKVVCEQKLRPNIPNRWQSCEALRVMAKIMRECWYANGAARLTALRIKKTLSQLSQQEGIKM
Chain of Serine/threonine-protein kinase Nek6 (Homo sapiens) (Q9HC98 whole entry): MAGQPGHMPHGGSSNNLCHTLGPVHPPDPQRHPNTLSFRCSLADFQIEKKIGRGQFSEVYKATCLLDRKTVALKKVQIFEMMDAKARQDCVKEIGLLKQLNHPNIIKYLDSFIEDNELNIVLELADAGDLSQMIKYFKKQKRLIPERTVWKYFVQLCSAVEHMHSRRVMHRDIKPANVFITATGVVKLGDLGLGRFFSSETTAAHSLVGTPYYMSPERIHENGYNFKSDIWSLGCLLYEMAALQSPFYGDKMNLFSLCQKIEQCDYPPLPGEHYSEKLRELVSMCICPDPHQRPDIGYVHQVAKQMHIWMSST
Chain of Cyclin-dependent kinase 6 (Homo sapiens) (Q00534 whole entry): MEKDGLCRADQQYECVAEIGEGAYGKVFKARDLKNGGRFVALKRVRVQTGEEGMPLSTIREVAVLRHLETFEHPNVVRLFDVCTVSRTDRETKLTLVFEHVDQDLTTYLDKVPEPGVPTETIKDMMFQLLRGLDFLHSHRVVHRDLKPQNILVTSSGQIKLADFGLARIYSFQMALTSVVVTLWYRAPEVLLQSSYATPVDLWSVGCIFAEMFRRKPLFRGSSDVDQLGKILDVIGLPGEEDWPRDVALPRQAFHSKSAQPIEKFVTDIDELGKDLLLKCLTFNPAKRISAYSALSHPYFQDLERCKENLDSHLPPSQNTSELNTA

For `CNc1cc(Oc2cc(C(=O)Nc3cc(N4CCN(C)CC4)cc(C(F)(F)F)c3)ccc2C)ncn1`, the inhibition (commonly the drop in the measured response relative to a control, in per cent) in assay [1] is -1.9%; in [2], 19.4%.

Regarding `CCN1CCN(Cc2ccc(NC(=O)c3ccc(C)c(/C=C/c4cnc5[nH]ccc5c4OC)c3)cc2C(F)(F)F)CC1`, the inhibition in [3] is -0.8%; in assay [4], 17.4%; in [6], -9.8%; in [8], 2.7%; in assay [9], 34.6%. In assay [5], this compound displayed a % of control of 2.8%. Moreover, the residual activity – broadly, the activity still measured, relative to the control – in assay [7] was 100%.

On to `CCN1CCN(Cc2ccc(NC(=O)c3ccc(C)c(Oc4ccnc5[nH]ccc45)c3)cc2C(F)(F)F)CC1`, for which the inhibition result in assay [10], in assay [12] and in assay [16] was “inactive” each time. Besides, in assay [11], the inhibition at 10 µM stood at 2.9%. The inhibition was 31.6% in [13]; 85.6% in assay [14]; 0.4% in assay [15]; 31.6% in assay [18]; -7.1% in assay [19]. Further, the residual activity in [17] worked out at 5.3%.
